Experimental data from patent US20250319183A1, “COMPOSITIONS AND METHODS FOR THE TREATMENT OF CANCER” (Beth Israel Deaconess Medical Center, priority 2021, published 2025).
Square brackets hold non-standard residues; d marks the D form. Peptide text beside a SMILES is read from it.

Key:
THP-1 = experiment: TCRL antibody binding (PR1-HLA-A2 presentation) on THP-1, flow cytometry; type: cell-based; settings: four doses of 1 μM added twice daily for two days, then two days culture
Experimental: To determine the effect hypomethylation agents (HMAa) have on tumor antigen presentation, AML patient-derived tumor cells were treated for two days with four doses of 1 μM SGI-110, an HMA, added twice daily and then cultured for additional two days. TAP2 expression was assessed using immunohistochemical staining with and without treatment with SGI-110 (FIG. 3A). The HLA-A2 expressing AML cell line, THP-1, was treated for two days with four doses of 1 μM SGI-110 added twice daily and then cultured for an additional two days. The cells were then analyzed for binding capacity of a unique T cell receptor-like (TCRL) antibody. The TCRL antibody is a TCR mimic that recognizes the PR1-HLA-A2-MHC complex on the surface of leukemic cells where PR-1 is a known leukemic antigen. […] An HLA-A2 negative cell line U937 (histiocytic lymphoma) was used as a negative control.

[1] = test system: multiple myeloma (MM) and AML cell lines; settings: single agent; cited from earlier work
AML cell = settings: in combination with decitabine; cited from earlier work
[2] = test system: chronic lymphocytic leukemia (CLL) and AML cells; settings: cited from earlier work

Nc1ncn([C@H]2C[C@H](OP(=O)(O)OCC3O[C@@H](n4cnc5c(=O)[nH]c(N)nc54)CC3O)[C@@H](CO)O2)c(=O)n1 (stereo in doubt) [SGI-110, 2′-deoxy-5-aza-cytidylyl-(3′->5′)-2′-deoxy-guanosine]
tumor antigen presentation, binding of TCRL antibody (THP-1): increased binding of TCRL antibody

CN(C)CC[C@H](CSc1ccccc1)Nc1ccc(S(=O)(=O)NC(=O)c2ccc(N3CCN(Cc4ccccc4-c4ccc(Cl)cc4)CC3)cc2)cc1[N+](=O)[O-] [ABT-737, 4-[4-[[2-(4-chlorophenyl)phenyl]methyl]piperazin-1-yl]-N-[4-[[(2R)-4-(dimethylamino)-1-phenylsulfanylbutan-2-yl]amino]-3-nitrophenyl]sulfonylbenzamide]
activity against cell lines [1]: single agent activity

N=C(N)NCCC[C@@H](N)C(=O)N[C@H](CCCNC(=N)N)C(=O)N[C@H](CCCNC(=N)N)C(=O)N[C@H](CCCNC(=N)N)C(=O)N[C@H](CCCNC(=N)N)C(=O)N[C@H](CCCNC(=N)N)C(=O)N[C@H](CCCNC(=N)N)C(=O)N[C@H](CCCNC(=N)N)C(=O)N[C@H](CCCNC(=N)N)C(=O)N[C@H](CS)C(=O)N[C@H](CCC(N)=O)C(=O)N[C@H](CS)C(=O)N[C@H](CCCNC(=N)N)C(=O)N[C@H](CCCNC(=N)N)C(=O)N[C@H](CCCCN)C(=O)N[C@H](CC(N)=O)C(=O)O.O=C(O)C(F)(F)F [GO-203, D-arginyl-D-arginyl-D-arginyl-D-arginyl-D-arginyl-D-arginyl-D-arginyl-D-arginyl-D-arginyl-D-cysteinyl-D-glutaminyl-D-cysteinyl-D-arginyl-D-arginyl-D-lysyl-D-asparagine trifluoroacetic acid] (H-[dR][dR][dR][dR][dR][dR][dR][dR][dR][dC][dQ][dC][dR][dR][dK][dN]-OH)
DNMT1 levels and AML cell survival (AML cell): effectively reduces DNMT1 levels and AML cell survival

CC1(C)CCC(c2ccc(Cl)cc2)=C(CN2CCN(c3ccc(C(=O)NS(=O)(=O)c4ccc(N[C@H](CCN5CCOCC5)CSc5ccccc5)c(S(=O)(=O)C(F)(F)F)c4)cc3)CC2)C1 [navitoclax, 4-[4-[[2-(4-chlorophenyl)-5,5-dimethylcyclohexen-1-yl]methyl]piperazin-1-yl]-N-[4-[[(2R)-4-morpholin-4-yl-1-phenylsulfanylbutan-2-yl]amino]-3-(trifluoromethylsulfonyl)phenyl]sulfonylbenzamide]
anti-cancer activity [2]: anti-cancer activity
